The values below come from patent publication US11306331B2, “Processes for the production of hydroxycinnamic acids using polypeptides having tyrosine ammonia lyase activity” (CysBio ApS, priority 2014, dated 2022).

In assay [1] the target is T1, Herpetosiphon aurantiacus HaXAL1 tyrosine ammonia lyase (Protein GI 159898407), SEQ ID NO: 2, His-tagged (N-terminal tag SEQ ID NO: 11) (Herpetosiphon aurantiacus, UniProt A9AUJ9).
T1 sequence (A9AUJ9 1-552): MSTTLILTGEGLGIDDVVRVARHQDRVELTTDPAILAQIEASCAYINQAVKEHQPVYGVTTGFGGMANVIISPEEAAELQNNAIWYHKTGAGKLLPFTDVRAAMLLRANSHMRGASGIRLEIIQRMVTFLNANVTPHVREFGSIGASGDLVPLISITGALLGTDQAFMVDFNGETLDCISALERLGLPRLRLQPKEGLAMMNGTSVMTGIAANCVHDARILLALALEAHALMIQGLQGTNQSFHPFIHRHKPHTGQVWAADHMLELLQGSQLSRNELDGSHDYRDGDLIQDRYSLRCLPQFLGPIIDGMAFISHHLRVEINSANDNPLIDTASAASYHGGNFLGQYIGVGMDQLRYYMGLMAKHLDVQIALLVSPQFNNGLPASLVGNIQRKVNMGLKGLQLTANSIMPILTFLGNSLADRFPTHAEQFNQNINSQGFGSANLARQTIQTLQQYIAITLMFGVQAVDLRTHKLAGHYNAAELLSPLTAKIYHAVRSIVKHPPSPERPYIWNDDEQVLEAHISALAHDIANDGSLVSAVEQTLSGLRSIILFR
Kind of assay: In vitro kinetics of purified His-tagged HaXAL1 (tyrosine/phenylalanine ammonia lyase activity, absorbance at 315/295 nm). Format: biochemical. Here is the method: The tyrosine ammonia lyase activity may for instance be determined in accordance to the following method: Enzymatic assays are performed in 200 μL volumes in wells in a UV transparent 96-well plate, by following the increase in absorbance at 315 nm (pHCA) using spectrophotometry or HPLC with UV detection. The reaction mixtures contain 2 μg of purified protein and are initiated by adding 1 mM tyrosine or 6 mM after equilibration to 30° C. The enzymatic activity is calculated as U/g, where U is defined as μmol substrate converted per minute. Negative controls contain no purified protein. Kinetic constants Km and vmax are determined from assays containing 1.56 μM to 200 μM tyrosine. See also Kyndt et al. (2002).
Four of the enzymes were further purified by His-tag purification as follows. A DNA linker (5′ phosphorylated oligonucleotides CBJP559 and CBJP560, Table 5) was inserted in place of the sequence between the NdeI and BgIII site in plasmid pCDFDuet-1. This would result in the addition of the amino acids MAHHHHHHENLYFQ (SEQ ID NO: 11) to the N-terminal end of the polypeptides. […]
(§1) Enzymatic assays were performed in 200 μL volumes in wells in a UV transparent 96-well plate, by following the increase in absorbance at 315 nm (pHCA) or 295 nm (CA). […] The enzymatic activity was calculated as U/g, where U is defined as μmol substrate converted per minute.

The target of assay [2] is T2, Saccharothrix espanaensis SeSam8 (Protein GI 433607630), His-tagged (N-terminal tag SEQ ID NO: 11) (Saccharothrix espanaensis, UniProt Q2EYY5).
T2 sequence (Q2EYY5 1-510): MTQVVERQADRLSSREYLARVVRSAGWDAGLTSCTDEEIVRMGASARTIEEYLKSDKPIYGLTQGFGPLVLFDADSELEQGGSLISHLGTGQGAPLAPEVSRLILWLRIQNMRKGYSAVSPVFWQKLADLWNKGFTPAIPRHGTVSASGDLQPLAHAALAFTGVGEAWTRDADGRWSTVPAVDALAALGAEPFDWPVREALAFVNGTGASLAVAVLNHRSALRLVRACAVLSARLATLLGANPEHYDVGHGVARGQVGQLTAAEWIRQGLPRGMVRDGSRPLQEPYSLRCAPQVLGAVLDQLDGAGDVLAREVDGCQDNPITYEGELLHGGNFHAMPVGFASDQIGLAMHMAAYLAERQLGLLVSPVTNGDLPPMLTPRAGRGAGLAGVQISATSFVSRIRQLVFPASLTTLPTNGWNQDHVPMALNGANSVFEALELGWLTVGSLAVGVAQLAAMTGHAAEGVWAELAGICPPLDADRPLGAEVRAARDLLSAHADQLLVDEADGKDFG
In words: In vitro kinetics of purified His-tagged SeSam8 (tyrosine/phenylalanine ammonia lyase activity, absorbance at 315/295 nm). Format: biochemical.
Excerpt: Four of the enzymes were further purified by His-tag purification as follows. A DNA linker (5′ phosphorylated oligonucleotides CBJP559 and CBJP560, Table 5) was inserted in place of the sequence between the NdeI and BgIII site in plasmid pCDFDuet-1. This would result in the addition of the amino acids MAHHHHHHENLYFQ (SEQ ID NO: 11) to the N-terminal end of the polypeptides. The resulting plasmid was amplified with primers CBJP575 and CBJP576 (table 5) and the genes were amplified and combined using the Gibson reaction (New England Biolabs). The PCR amplification used the same reverse primers as in example 1, but the forward primers matching the His-tag site of the linker (Table 5). Plasmids carrying the genes (e.g. FjXAL, FIG. 4) were transformed into electrocompetent E. coli BL21(DE3)pLysS cells (Life Technologies) and selected on LB plates containing 50 ug/mL streptomycin.
Strains expressing His-tagged versions of the enzymes were grown in LB media overnight at 37° C. and diluted into fresh LB media with 1 mM IPTG and growth was propagated overnight (approximately 18 h) at 30° C. […]
as §1

Assay [3] relates to E. coli BL21(DE3)pLysS cells. In words: Titers of hydroxycinnamic acids in supernatants of E. coli cultures expressing TAL homologs. Format: cell-based, Escherichia coli. The settings on record: 16 hours, 37° C., duplicate. Here is the method:
E. coli strains described in Example 1 were used. M9 medium with 0.2% glucose and 0.5 mM IPTG also containing either tyrosine (204 μM), L-dopa (194 μM) or 3-O-methyldopa (262 μM) was transferred as 3-mL aliquots into a 24-well deep-well plate (Enzyscreen). Aliquots were taken for HPLC before the wells were inoculated with 200 μL of overnight cultures of the strains. The plates were placed at 37° C. with shaking for 16 hours. Samples of the supernatant were withdrawn after two rounds of centrifugation. The samples were subjected to HPLC along with chemical standards as described in Example 1. p-coumaric acid, caffeic acid and ferulic acid was measured by absorbance at 333 nm. Tyrosine, L-dopa and 3-O-methyldopa were measured by fluorescence (excitation at 274 nm, emission at 303 nm).
There was no measurable product in the medium before inoculation.

The mark [4] stands for this setting: 30° C, 1.56 μM to 200 μM tyrosine or 193 μM to 25 mM phenylalanine.
Setting [5] is: ratio of Kcat/Km for Tyr over Phe.

`N[C@@H](Cc1ccc(O)cc1)C(=O)O` [Tyr, tyrosine]: the figures for the Kcat in assay [1] (setting [4]) and in assay [2] (setting [4]) were 0.0517 s⁻¹ and 0.014 s⁻¹, respectively. Also, the TAL/PAL in assay [1] (setting [5]) was 540; in assay [2] (setting [5]), 730.

B1: Flavobacterium johnsoniae FjXAL tyrosine ammonia lyase (Protein GI 146298870), SEQ ID NO: 1, His-tagged (N-terminal tag SEQ ID NO: 11) (Flavobacterium … (protein)
chain: MNTINEYLSLEEFEAIIFGNQKVTISDVVVNRVNESFNFLKEFSGNKVIYGVNTGFGPMAQYRIKESDQIQLQYNLIRSHSSGTGKPLSPVCAKAAILARLNTLSLGNSGVHPSVINLMSELINKDITPLIFEHGGVGASGDLVQLSHLALVLIGEGEVFYKGERRPTPEVFEIEGLKPIQVEIREGLALINGTSVMTGIGVVNVYHAKKLLDWSLKSSCAINELVQAYDDHFSAELNQTKRHKGQQEIALKMRQNLSDSTLIRKREDHLYSGENTEEIFKEKVQEYYSLRCVPQILGPVLETINNVASILEDEFNSANDNPIIDVKNQHVYHGGNFHGDYISLEMDKLKIVITKLTMLAERQLNYLLNSKINELLPPFVNLGTLGFNFGMQGVQFTATSTTAESQMLSNPMYVHSIPNNNDNQDIVSMGTNSAVITSKVIENAFEVLAIEMITIVQAIDYLGQKDKISSVSKKWYDEIRNIIPTFKEDQVMYPFVQKVKDHLINN
As to B1, the “Titer of ferulic acid” value in assay [3] (M9 + 3-O-methyldopa (262 μM)) turned out to be 1.1 ± 0.3 µM. In addition, the “Titer of caffeic acid” value in assay [3] (M9 + L-dopa (194 μM)) turned out to be 5.7 ± 1.0 µM. In addition, the “Titer of p-coumaric acid” value in assay [3] (M9 + tyrosine (204 μM)) turned out to be 215 ± 11.1 µM.
